Paper PMC12504684 (Communications Chemistry, 2025)
Like-named read-outs stand apart in the source and are kept apart here.

Key:
468 kinases [1] = conditions: concentration of 100 nM; cited from earlier work
468 kinases [2] = format: binding; conditions: concentration of 100 nM

| Compound | number of wild-type kinases inhibited (percent control <35%) (468 kinases [1]) | number of wild-type kinases inhibited (percent control <35%) (468 kinases [2]) |
| --- | --- | --- |
| Cc1cnc(Nc2ccc(OCCN3CCCC3)cc2)nc1Nc1cccc(S(=O)(=O)NC(C)(C)C)c1 [Fedratinib] | 34 |  |
| C1=C/COCc2cc(ccc2OCCN2CCCC2)Nc2nccc(n2)-c2cccc(c2)COC/1 [Pacritinib] |  | 55 |
